Biological target: T1, Polyunsaturated fatty acid lipoxygenase ALOX15 (Oryctolagus cuniculus, UniProt P12530)
T1 sequence (P12530 whole entry): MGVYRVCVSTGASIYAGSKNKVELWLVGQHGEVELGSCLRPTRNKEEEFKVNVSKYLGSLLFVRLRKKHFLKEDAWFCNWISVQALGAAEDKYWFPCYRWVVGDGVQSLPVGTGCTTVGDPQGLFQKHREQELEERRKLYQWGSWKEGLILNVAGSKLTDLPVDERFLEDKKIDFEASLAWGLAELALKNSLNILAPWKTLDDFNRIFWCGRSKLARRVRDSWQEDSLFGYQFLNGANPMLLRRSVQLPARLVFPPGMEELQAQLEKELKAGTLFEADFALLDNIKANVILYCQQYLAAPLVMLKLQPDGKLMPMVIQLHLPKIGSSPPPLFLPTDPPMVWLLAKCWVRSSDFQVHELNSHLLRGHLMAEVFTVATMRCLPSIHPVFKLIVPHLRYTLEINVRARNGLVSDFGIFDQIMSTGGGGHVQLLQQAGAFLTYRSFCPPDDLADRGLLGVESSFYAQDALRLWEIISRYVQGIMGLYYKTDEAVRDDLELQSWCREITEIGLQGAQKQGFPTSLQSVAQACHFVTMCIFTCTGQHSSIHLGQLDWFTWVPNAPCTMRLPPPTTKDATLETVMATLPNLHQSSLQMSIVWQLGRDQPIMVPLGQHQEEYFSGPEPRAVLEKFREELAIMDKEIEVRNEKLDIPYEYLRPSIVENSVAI
Assay: Inhibition of 15LOX in rabbit reticulocytes by spectrophotometric assay

| IC50 | Compound |
| --- | --- |
| 0.52 µM | O=C1O[C@H](c2ccc(O)c(O)c2)[C@H]2CO[C@H](c3ccc(O)c(O)c3)[C@@H]12 |
| 0.76 µM | OC[C@@H]1[C@@H]([C@H](O)c2ccc(O)c(O)c2)CO[C@@H]1c1ccc(O)c(O)c1 |
| 0.52 µM | Oc1ccc([C@@H]2OC[C@@H]3[C@H]2CO[C@H]3c2ccc(O)c(O)c2)cc1O |

Biological target: T2, Polyunsaturated fatty acid 5-lipoxygenase (Homo sapiens, UniProt P09917)
T2 sequence (P09917 whole entry): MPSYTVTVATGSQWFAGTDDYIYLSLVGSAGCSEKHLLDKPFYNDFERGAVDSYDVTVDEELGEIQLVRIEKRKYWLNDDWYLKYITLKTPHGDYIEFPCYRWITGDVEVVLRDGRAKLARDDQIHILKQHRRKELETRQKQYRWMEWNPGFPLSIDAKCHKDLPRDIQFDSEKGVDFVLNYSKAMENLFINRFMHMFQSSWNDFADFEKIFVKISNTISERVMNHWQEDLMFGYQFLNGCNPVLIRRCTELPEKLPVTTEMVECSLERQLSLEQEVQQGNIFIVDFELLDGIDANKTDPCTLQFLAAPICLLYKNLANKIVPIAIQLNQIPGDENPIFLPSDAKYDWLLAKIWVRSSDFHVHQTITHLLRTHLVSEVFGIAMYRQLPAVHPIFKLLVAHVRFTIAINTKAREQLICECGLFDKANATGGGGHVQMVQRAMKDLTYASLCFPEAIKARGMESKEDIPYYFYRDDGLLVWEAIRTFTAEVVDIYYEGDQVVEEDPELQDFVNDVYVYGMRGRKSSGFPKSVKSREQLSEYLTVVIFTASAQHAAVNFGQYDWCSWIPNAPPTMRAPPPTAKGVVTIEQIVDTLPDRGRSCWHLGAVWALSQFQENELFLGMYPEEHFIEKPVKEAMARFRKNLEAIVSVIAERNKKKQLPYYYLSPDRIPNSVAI
Assay: Inhibition of 5LOX in human PBMC by EIA assay

| Compound | IC50 |
| --- | --- |
| COc1cc([C@@H]2OC[C@H]3[C@@H]2CO[C@H]3c2ccc(O)c(OC)c2)ccc1O [(-)-PINORESINOL] | 13.8 µM |
| OC[C@@H]1[C@@H]([C@H](O)c2ccc(O)c(O)c2)CO[C@@H]1c1ccc(O)c(O)c1 | 9.2 µM |
| COc1cc2oc(=O)ccc2cc1O [ISOSCOPOLETIN] | > 100 µM |

Now from value to compound:

| IC50 | Compound |
| --- | --- |
| 5.6 µM | O=C1O[C@H](c2ccc(O)c(O)c2)[C@H]2CO[C@H](c3ccc(O)c(O)c3)[C@@H]12 |
| 5.9 µM | Oc1ccc([C@@H]2OC[C@@H]3[C@H]2CO[C@H]3c2ccc(O)c(O)c2)cc1O |
| > 100 µM | COc1cc2ccc(=O)oc2cc1O [SCOPOLETIN] |

Biological target: T3, Prostaglandin G/H synthase 2 (Homo sapiens, UniProt P35354)
T3 sequence (P35354 whole entry): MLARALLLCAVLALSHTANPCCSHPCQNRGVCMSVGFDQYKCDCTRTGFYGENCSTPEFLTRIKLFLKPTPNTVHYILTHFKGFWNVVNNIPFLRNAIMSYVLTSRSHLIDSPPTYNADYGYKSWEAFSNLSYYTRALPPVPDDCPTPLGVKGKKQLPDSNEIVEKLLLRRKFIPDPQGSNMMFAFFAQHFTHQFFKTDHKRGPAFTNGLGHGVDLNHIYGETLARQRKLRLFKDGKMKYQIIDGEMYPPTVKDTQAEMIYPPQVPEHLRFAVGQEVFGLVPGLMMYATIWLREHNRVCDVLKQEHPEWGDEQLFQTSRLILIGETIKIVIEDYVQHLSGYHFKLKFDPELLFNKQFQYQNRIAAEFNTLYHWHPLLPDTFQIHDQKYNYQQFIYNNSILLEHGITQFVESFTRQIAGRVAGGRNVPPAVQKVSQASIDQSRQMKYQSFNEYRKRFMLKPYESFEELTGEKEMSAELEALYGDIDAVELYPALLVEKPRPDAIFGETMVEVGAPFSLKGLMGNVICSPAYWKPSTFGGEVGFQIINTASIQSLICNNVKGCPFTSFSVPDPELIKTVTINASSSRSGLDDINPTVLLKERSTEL
Assay: Inhibition of human recombinant COX2 expressed in insect Sf21 cells by EIA assay

| Compound | IC50 |
| --- | --- |
| O=c1c(O)c(-c2ccc(O)cc2)oc2cc(O)cc(O)c12 [KAEMPFEROL] | > 100 µM |
| OC[C@@H]1[C@@H]([C@H](O)c2ccc(O)c(O)c2)CO[C@@H]1c1ccc(O)c(O)c1 | 73.9 µM |
| COc1cc2oc(=O)ccc2cc1O [ISOSCOPOLETIN] | > 100 µM |

Further lines, results first:

| IC50 | Compound |
| --- | --- |
| 90.2 µM | O=C1O[C@H](c2ccc(O)c(O)c2)[C@H]2CO[C@H](c3ccc(O)c(O)c3)[C@@H]12 |
| > 100 µM | Oc1ccc([C@@H]2OC[C@@H]3[C@H]2CO[C@H]3c2ccc(O)c(O)c2)cc1O |
| > 100 µM | COc1cc2ccc(=O)oc2cc1O [SCOPOLETIN] |
